Laboratory results: ChEMBL document CHEMBL5385927, “Chemical and Antiplasmodial Investigations on Eremophila-Derived Alkaloids and Semisynthetic Ether Analogues” (J Nat Prod, 2024)

Columns and labels:
[1] = Cytotoxicity against human HEK293 cells assessed as inhibition of cell viability at 80 uM measured after 66 hrs by Alamar Blue dye based fluorescence analysis; assay type: toxicity; settings: read-out: INH
Plasmodium falciparum [2] = test: Antiplasmodial activity against choloroquine-sensitive ring stage of Plasmodium falciparum 3D7 assessed as inhibition of parasite growth measured after 72 hrs by DAPI staining based analysis; assay type: functional, organism-based; settings: 3D7, 72 h
[3] = Cytotoxicity against human HEK293 cells assessed as inhibition of cell viability measured after 66 hrs by Alamar Blue dye based fluorescence analysis; assay type: toxicity
Plasmodium falciparum [4] = test: Antiplasmodial activity against choloroquine-sensitive ring stage of Plasmodium falciparum 3D7 assessed as inhibition of parasite growth at 40 uM measured after 72 hrs by DAPI staining based analysis; assay type: functional

SMILES	cytotoxicity at 66 h, 80 µM [1] [%]	IC50 (Plasmodium falciparum [2]) [µM]	IC50 at 66 h [3] [µM]	inhibition at 40 µM (Plasmodium falciparum [4]) [%]
CC(C)=CCCc1cnc2c(C)cc(O)c3c2c1CC[C@H]3C	92	8.9		
CC(C)=CCCc1cnc2c(C)cc(OCc3ccccc3)c3c2c1CC[C@H]3C		7.6	30.8	
CC(C)=CCCc1cnc2c(C)cc(OC3CCCCC3)c3c2c1CC[C@H]3C	23			93
C=CCOc1cc(C)c2ncc(CCC=C(C)C)c3c2c1[C@H](C)CC3	85	13.1		
CC(C)=CCCc1cnc2c(C)cc(OCc3cccc([N+](=O)[O-])c3)c3c2c1CC[C@H]3C	7	13.1		
CC(C)=CCCc1cnc2c(C)cc(OCc3ccccc3-c3ccccc3)c3c2c1CC[C@H]3C	94	8		
CC(C)=CCCc1cnc2c(C)cc(O)c3c2c1[C@H](O)C[C@H]3C	14			78
CC(C)=CCCc1cnc2c(C)cc(OCc3cccc(Cl)c3)c3c2c1CC[C@H]3C	65	11		
CC(C)=CCCc1cnc2c(C)cc(OCc3ccc(Br)cc3)c3c2c1CC[C@H]3C		9.7	40.7	
CC(C)=CCCc1cnc2c(C)cc(OCc3cccc(Br)c3)c3c2c1CC[C@H]3C		7.2	39.3	
CC(C)=CCCc1cnc2c(C)cc(OC3CCCC3)c3c2c1CC[C@H]3C	83	12.5		
CC(C)=CCCc1cnc2c(C)cc(OCc3cc(F)ccc3F)c3c2c1CC[C@H]3C		8	31.4	
C[C@H]1[C@@H](O)O[C@@H]2O[C@@]3(C)CC[C@H]4[C@H](C)CC[C@@H]1[C@@]24OO3 [ARTENIMOL]		0.021		
COc1ccc(C[C@H](N)C(=O)N[C@H]2[C@@H](O)[C@H](n3cnc4c(N(C)C)ncnc43)O[C@@H]2CO)cc1 [PUROMYCIN]		0.033	0.49	
